Values quoted from earlier work, collected in patent US6955904B2, “Gene coding for quinone oxidoreductase of kluyveromyces marxianus and protein expressed therefrom” (Korea Institute of Science and Technology, priority 2001, dated 2005).

Key:
[1] = target: T1, Arabidopsis thaliana quinone oxidoreductases (Arabidopsis thaliana, UniProt Q9LK88); settings: Sparla et al., FEBS Letters 1999
T1 sequence (Q9LK88 1-196): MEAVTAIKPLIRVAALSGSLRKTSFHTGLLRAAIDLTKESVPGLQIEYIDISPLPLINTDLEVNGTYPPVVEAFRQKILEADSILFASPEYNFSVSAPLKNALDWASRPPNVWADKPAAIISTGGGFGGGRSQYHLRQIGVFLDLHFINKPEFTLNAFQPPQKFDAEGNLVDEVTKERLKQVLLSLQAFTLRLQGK

[2] = target: human quinone oxidoreductase (Homo sapiens, UniProt P15559); settings: Siegel et al., Mol. Pharmacol. 1997
human quinone oxidoreductase, sequence (P15559 whole entry): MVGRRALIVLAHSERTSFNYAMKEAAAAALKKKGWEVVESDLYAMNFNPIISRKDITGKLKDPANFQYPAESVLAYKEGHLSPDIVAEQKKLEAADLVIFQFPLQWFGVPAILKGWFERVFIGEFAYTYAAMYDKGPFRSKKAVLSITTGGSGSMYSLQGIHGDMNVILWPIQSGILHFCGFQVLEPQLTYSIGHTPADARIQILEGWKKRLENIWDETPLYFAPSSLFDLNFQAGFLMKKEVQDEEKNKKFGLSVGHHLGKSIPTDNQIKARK

CC1=C(C)C(=O)C(C)=C(C)C1=O [duroquinone]
rate constant for the reaction [1]: 3.2×10^7 M^−1m^−1

CC1=C(C)C(=O)C(CC[C@](C)(O)CCC[C@H](C)CCC[C@H](C)CCCC(C)C)=C(C)C1=O [α-tocopherol quinone]
rate constant for the reaction [2]: 1.5×10^7 M^−1m^−1
